Experimental findings from patent publication US4552684A, “Dichroic dye and liquid crystalline composition for color display” (Mitsui Toatsu Chemicals, Inc., priority 1983, dated 1985) are described below.

SMILES strings stand for the structures.

The nature of one data set: solubility of dye in liquid crystals E-8. Type of data set: physicochemical. The settings on record: in liquid crystals E-8 at 25° C. The procedure: This is the solubility (% by weight) of each dye in liquid crystals E-8 (made by Merck & Co.) at 25° C.
On to `CCCCc1ccc(Nc2cccc3c2C(=O)c2cccc(Nc4ccc(CCCC)cc4)c2C3=O)cc1` [B, reference compound], for which the Solubility is 0.7 % by weight.
As to `CCCCCC1CCC(c2nc3c(N)c4c(c(O)c3o2)C(=O)c2ccccc2C4=O)CC1` (stereo not drawn) [No. 8], the Solubility was determined as 4.7 % by weight.
Still for that read-out and setting: with `Nc1c2c(c(O)c3oc(C4CCCCC4)nc13)C(=O)c1ccccc1C2=O` [C, reference compound] the figure was 0.4 % by weight.
Regarding `CN(C)c1ccc(N=Nc2ccc(N=Nc3ccccc3)cc2)cc1` [A, reference compound], the Solubility is given as 1.1 % by weight.

The data set is the same for the next values; noted with them: liquid crystals E-8.
As to `CCCCCC1CCC(c2nc3c(N)c4c(c(O)c3o2)C(=O)c2ccccc2C4=O)CC1` (stereo not drawn) [No. 8], the “solubility compared with known dyes A, B and C” value is reported as “higher solubility”.

The data set is the same for the next values; noted with them: liquid crystals E-8, temperature not stated (Example 5).
On to `CC(CC[C@H]1CC[C@H](c2nc3c(N)c4c(c(O)c3o2)C(=O)c2c(N)ccc(O)c2C4=O)CC1)CC(C)(C)C` (stereo partly drawn) [No.19], for which the “solubility in E-8” value worked out at 7.2 % by weight.

Still in this data set, the particulars now being: liquid crystals E-8, temperature not stated (Example 7).
As for `CC(C)(C)CC(C)(C)[C@H]1CC[C@H](c2nc3c(N)c4c(c(O)c3o2)C(=O)c2c(O)cccc2C4=O)CC1` [No. 22], the “solubility in liquid crystals E-8” value amounted to 4.0%.

The nature of another data set: dichroic ratio and maximum absorption wavelength in cyanobiphenyl/cyanoterphenyl liquid crystal mixture. As to conditions: 0.1 part dye in 10 parts cyanobiphenyl/cyanoterphenyl mixture (Example 4). Type of data set: physicochemical. The procedure:
0.1 Part by weight of the dye No. 8 in Table 1 was dissolved in 10 parts by weight of a liquid crystal mixture composed of 43% of 4-n-pentyl-4'-cyano-biphenyl, 17% of 4-n-propoxy-4'-cyanobiphenyl, 13% of 4-n-pentoxy-4'-cyanobiphenyl, 17% of 4-n-octoxy-4'-cyanobiphenyl and 10% of 4-n-pentyl-4'-cyanoterphenyl. The resulting color liquid crystal mixture was sealed into a glass cell having a gap of 10 microns which had been subjected to homogeneous aligning treatment. The maximum absorption wavelength was 512 nm and the dichroic ratio was 10.2. A display device obtained by sealing this color liquid crystal mixture into a glass liquid crystal display element of the same structure as above including transparent electrodes assumed a red color entirely in the absence of a voltage applied, and when a voltage was applied, only the part of the electrodes became nearly colorless, thus showing a good contrast.
As for `CCCCCC1CCC(c2nc3c(N)c4c(c(O)c3o2)C(=O)c2ccccc2C4=O)CC1` (stereo not drawn) [No. 8], the dichroic ratio is 10.2.

Staying with this data set, now noted: cyanobiphenyl/cyanoterphenyl mixture (Example 4).
`CCCCCC1CCC(c2nc3c(N)c4c(c(O)c3o2)C(=O)c2ccccc2C4=O)CC1` (stereo not drawn) [No. 8]: the maximum absorption wavelength is listed as 512 nm.

Another data set in a line: dichroic ratio of dye dissolved in liquid crystals (homogeneously aligned 10 micron cell). Type of data set: physicochemical. As to conditions: liquid crystals E-8; Table 1 method: 1.0% by weight dye, 10 micron gap. On the procedure: The dichroic ratio is determined as follows:
The cell was placed in the light path of a spectro-photometer. Straight polarized light parallel to the alignment of the liquid crystals was applied to the cell, and the absorbance ([…] ) was measured. Furthermore, straight polarized light at right angles to the alignment of the liquid crystals was applied, and the absorbance ([…] ) was measured. The dichroic ratio was calculated from the following equation. [formula]
For the molecule `CCCCCC1CCC(c2nc3cc4c(c(O)c3s2)C(=O)c2ccccc2C4=O)CC1` (stereo not drawn) [Dye No. 11], the “Dichroic ratio in liquid crystals E-8” value is on record as 8.5.
Still for that read-out and setting: with `CC(CC[C@H]1CC[C@H](c2nc3c(N)c4c(c(O)c3o2)C(=O)c2c(N)ccc(O)c2C4=O)CC1)CC(C)(C)C` (stereo partly drawn) [Dye No. 19] the figure was 10.3.
On the same count and under the same terms, to `CCCCc1ccc(OC(=O)C2CCC(c3nc4c(N)c5c(c(O)c4o3)C(=O)c3c(N)ccc(O)c3C5=O)CC2)cc1` (stereo not drawn) [Dye No. 27] belongs 9.2; to `CCCCCC1CCC(c2nc3cc4c(c(O)c3o2)C(=O)c2c(O)ccc(O)c2C4=O)CC1` (stereo not drawn) [Dye No. 18], 9.8; to `CCCCCCCCCCCCC1CCC(c2nc3c(N)c4c(c(O)c3o2)C(=O)c2ccccc2C4=O)CC1` (stereo not drawn) [Dye No. 9], 9.3.
Still for that read-out and setting: with `CCCCCC1CCC(c2nc3cc4c(c(NC)c3o2)C(=O)c2ccccc2C4=O)CC1` (stereo not drawn) [Dye No. 17] the figure was 6.9; with `CCCCc1ccc(OC(=O)C2CCC(c3nc4c(Cl)c5c(c(O)c4o3)C(=O)c3c(Cl)ccc(O)c3C5=O)CC2)cc1` (stereo not drawn) [Dye No. 26], 8.0; with `CCCCC1CCC(c2nc3c(N)c4c(c(O)c3o2)C(=O)c2ccccc2C4=O)CC1` (stereo not drawn) [Dye No. 1], 9.5.
`CCCCCOC(=O)C1CCC(c2nc3cc4c(c(O)c3o2)C(=O)c2c(O)ccc(O)c2C4=O)CC1` (stereo not drawn) [Dye No. 3]: the “Dichroic ratio in liquid crystals E-8” value stood at 9.3.
On the same count and under the same terms, to `CC(C)(C)C1CCC(c2nc3cc4c(c(O)c3s2)C(=O)c2ccccc2C4=O)CC1` (stereo not drawn) [Dye No. 13] belongs 7.8.

Staying with this data set, now noted: liquid crystals ZLI-1275.
Consider `CC(CC[C@H]1CC[C@H](c2nc3c(N)c4c(c(O)c3o2)C(=O)c2c(N)ccc(O)c2C4=O)CC1)CC(C)(C)C` (stereo partly drawn) [No.19], for which the dichroic ratio is 10.1.

Still in this data set, the particulars now being: liquid crystals ZLI-1840.
As to `CC(CC[C@H]1CC[C@H](c2nc3c(N)c4c(c(O)c3o2)C(=O)c2c(N)ccc(O)c2C4=O)CC1)CC(C)(C)C` (stereo partly drawn) [No.19], the dichroic ratio came to 10.8.
Consider `CC(C)(C)CC(C)(C)[C@H]1CC[C@H](c2nc3c(N)c4c(c(O)c3o2)C(=O)c2c(O)cccc2C4=O)CC1` [No. 22], for which the dichroic ratio was found to be 12.3.

A short description of a further data set: color of dye in toluene. Type of data set: physicochemical.
Settings: not given
`CCCCCC1CCC(c2nc3cc4c(c(O)c3s2)C(=O)c2ccccc2C4=O)CC1` (stereo not drawn) [Dye No. 11]: the Color in toluene entry is on record as “Yellow”.
Consider `CC(CC[C@H]1CC[C@H](c2nc3c(N)c4c(c(O)c3o2)C(=O)c2c(N)ccc(O)c2C4=O)CC1)CC(C)(C)C` (stereo partly drawn) [Dye No. 19], for which the Color in toluene result was “Blue”.
On to `CCCCc1ccc(OC(=O)C2CCC(c3nc4c(N)c5c(c(O)c4o3)C(=O)c3c(N)ccc(O)c3C5=O)CC2)cc1` (stereo not drawn) [Dye No. 27], for which the Color in toluene result was “Blue”.
On the same count and under the same terms, to `CCCCCC1CCC(c2nc3cc4c(c(O)c3o2)C(=O)c2c(O)ccc(O)c2C4=O)CC1` (stereo not drawn) [Dye No. 18] belongs “Orange”; to `CCCCCCCCCCCCC1CCC(c2nc3c(N)c4c(c(O)c3o2)C(=O)c2ccccc2C4=O)CC1` (stereo not drawn) [Dye No. 9], “Red”.
For `CCCCCC1CCC(c2nc3cc4c(c(NC)c3o2)C(=O)c2ccccc2C4=O)CC1` (stereo not drawn) [Dye No. 17], the Color in toluene entry is on record as “Orange”.
Still for that read-out and setting: with `CCCCc1ccc(OC(=O)C2CCC(c3nc4c(Cl)c5c(c(O)c4o3)C(=O)c3c(Cl)ccc(O)c3C5=O)CC2)cc1` (stereo not drawn) [Dye No. 26] the entry was “Orange”; with `CCCCC1CCC(c2nc3c(N)c4c(c(O)c3o2)C(=O)c2ccccc2C4=O)CC1` (stereo not drawn) [Dye No. 1], “Red”.
Turning to `CCCCCOC(=O)C1CCC(c2nc3cc4c(c(O)c3o2)C(=O)c2c(O)ccc(O)c2C4=O)CC1` (stereo not drawn) [Dye No. 3], the Color in toluene entry was “Orange”.
On the same count and under the same terms, with `CC(C)(C)C1CCC(c2nc3cc4c(c(O)c3s2)C(=O)c2ccccc2C4=O)CC1` (stereo not drawn) [Dye No. 13] the entry was “Yellow”.

The nature of a further data set: light fastness (total current after exposure of cell to solar light for 200 hours). Type of data set: physicochemical. The settings on record: 0.5% by weight dye in E-8; solar light 200 hours; rectangular wave 6Vp-p, 32 Hz; total current. On the procedure:
0.5% by weight of each dye was dissolved in the liquid crystals E-8, and the solution was sealed into a liquid crystal wall having a gap of 10 microns and including a pair of facing transparent electrodes with an area of 1.0 cm^2. The cell was exposed to solar light for 200 hours. Then, a voltage of a rectangular wave form (6Vp-p, 32 Hz) was applied, and the total current was measured (μA/cm^2).
Take `CCCCc1ccc(Nc2cccc3c2C(=O)c2cccc(Nc4ccc(CCCC)cc4)c2C3=O)cc1` [B, reference compound]: the Light fastness is 3.6 μA/cm^2.
Same read-out and setting: with `CCCCCC1CCC(c2nc3c(N)c4c(c(O)c3o2)C(=O)c2ccccc2C4=O)CC1` (stereo not drawn) [No. 8] the figure was 2.0 μA/cm^2; with `CN(C)c1ccc(N=Nc2ccc(N=Nc3ccccc3)cc2)cc1` [A, reference compound], 4.2 μA/cm^2.

The data set is the same for the next values; noted with them: as in Table 2.
Turning to `CCCCCC1CCC(c2nc3c(N)c4c(c(O)c3o2)C(=O)c2ccccc2C4=O)CC1` (stereo not drawn) [No. 8], the “light fastness compared with known dyes” value was “higher solubility and light fastness than known dyes A, B and C”.

The nature of a further data set: maximum absorption wavelength of dye in liquid crystals. The class given is physicochemical. The settings on record: liquid crystals E-8. The procedure:
The crude dye was purified by the same column chromatographic technique as in Example 1 to give a blue dye having a melting point of 155° to 157° C. (Dye No.19 in Table 1). The dichroic ratio of the dye was measured in the liquid crystals E-8 in the same way as described above with regard to Table 1, and found to be 10.3 (λmax 616 nm). […] When liquid crystals ZLI-1840 were used instead of the liquid crystals E-8, the dichroic ratio of the dye was 10.8 (λmax 612 nm). When liquid crystals ZLI-1275 were used, the dichroic ratio was 10.1 (λmax 616 nm).
Turning to `CC(CC[C@H]1CC[C@H](c2nc3c(N)c4c(c(O)c3o2)C(=O)c2c(N)ccc(O)c2C4=O)CC1)CC(C)(C)C` (stereo partly drawn) [No.19], the λmax worked out at 616 nm.

Staying with this data set, now noted: liquid crystals ZLI-1275.
As to `CC(CC[C@H]1CC[C@H](c2nc3c(N)c4c(c(O)c3o2)C(=O)c2c(N)ccc(O)c2C4=O)CC1)CC(C)(C)C` (stereo partly drawn) [No.19], the λmax worked out at 616 nm.

Still in this data set, the particulars now being: liquid crystals ZLI-1840.
For `CC(CC[C@H]1CC[C@H](c2nc3c(N)c4c(c(O)c3o2)C(=O)c2c(N)ccc(O)c2C4=O)CC1)CC(C)(C)C` (stereo partly drawn) [No.19], the λmax stood at 612 nm.
